The test system of data set [1] is Jurkat. Nature of the data set: Cytotoxicity against human Jurkat cells assessed as cell growth inhibition incubated for 48 hrs by MTT assay. It counts as functional, cell-based. On the technique in general: Tetrazolium dyes change colour on reduction, which living cells bring about.
The target of data set [2] is Programmed cell death protein 1/Programmed cell death 1 ligand 1 (Homo sapiens) (UniProt Q15116+Q9NZQ7). Conditions: dose 300.0 nM, time 15.0 min.
Data set [3] can be described thus: Partition coefficient, logD of compound in 1-octanol and phosphate buffer at pH 7.4 incubated for 1 hr under shaking condition by HPLC analysis. Type of data set: physicochemical. The following applies: for logD at 1 h: 1-octanol/phosphate buffer, pH 7.4.
Data set [4] has as its target Programmed cell death 1 ligand 1 (Homo sapiens) (UniProt Q9NZQ7). Put plainly: Induction of human PD-L1 degradation expressed in MC38 cells at 10 uM cocultured for 72 hrs by Western blotting analysis. It counts as cell-based. On the technique in general: Immunoblotting shows a protein as a band on a membrane.
Data set [5] shares this target. Put plainly: Inhibition of human PD-L1 overexpressed in RKO cells assessed as reduction in membrane activity cocultured for 48 hrs by flow cytometry analysis. Type of data set: cell-based.
The test system of data set [6] is RKO. Put plainly: Cytotoxicity against human RKO cells over expressing human PD-L1 at 50 uM. Type of data set: toxicity, cell-based.
A short description of data set [7]: Cytotoxicity against human Jurkat T cells assessed as cell viability at 10 uM incubated for 48 hrs by MTT assay. Conditions: read-out: Activity. It counts as toxicity, cell-based.
The target in data set [8] is Programmed cell death 1 ligand 1 (Homo sapiens) (UniProt Q9NZQ7). Nature of the data set: Induction of human PD-L1 degradation expressed in MC38 cells at 0.1 to 10 uM cocultured for 72 hrs by Western blotting analysis. It counts as cell-based. The following applies: dose 0.1-10 µM.
In data set [9] the target is Programmed cell death protein 1/Programmed cell death 1 ligand 1 (Homo sapiens, UniProt Q9NZQ7). Nature of the data set: Inhibition of PD-1/PD-L1 (unknown origin) interaction incubated for 15 mins by HTRF assay. It counts as protein-complex assay.
For data set [10], the system named is MC-38. Put plainly: Cytotoxicity against mouse MC38 cells assessed as cell death at 10 uM for 48 hrs by MTT assay. Type of data set: toxicity, cell-based. Conditions: mc-38, 48 h.
The subject of data set [11] is RKO. Nature of the data set: Cytotoxicity against human RKO cells over expressing human PD-L1 at above 10 uM. It counts as toxicity, cell-based.
Data set [12] can be described thus: Toxicity in BALB/c mouse implanted with mouse CT26 cells assessed as weight loss at 25 mg/kg, ip qd administered for 10 days measured every 2 days for 12 days relative to control. It counts as organism-based. Conditions: in vivo, 288 h, time 12 day.

The source of these data is ChEMBL document CHEMBL5338801, “Carbohydrate Strengthens the Immunotherapeutic Effect of Small-Molecule PD-L1 Inhibitors” (J Med Chem, 2023).

Calls of active or inactive are those of the source. No cut-off for these calls is given here.

Sequence of Programmed cell death 1 ligand 1 (Homo sapiens) (Q9NZQ7 whole entry): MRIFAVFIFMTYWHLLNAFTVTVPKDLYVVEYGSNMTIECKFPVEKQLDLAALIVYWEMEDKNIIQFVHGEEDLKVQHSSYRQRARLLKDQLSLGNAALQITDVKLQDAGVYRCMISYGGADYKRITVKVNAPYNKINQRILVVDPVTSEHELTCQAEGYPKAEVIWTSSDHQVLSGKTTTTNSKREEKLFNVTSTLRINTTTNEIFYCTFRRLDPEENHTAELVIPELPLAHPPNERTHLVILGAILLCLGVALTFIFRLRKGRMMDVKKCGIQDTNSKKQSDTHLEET
Sequence of Programmed cell death protein 1/Programmed cell death 1 ligand 1 (Q15116 whole entry): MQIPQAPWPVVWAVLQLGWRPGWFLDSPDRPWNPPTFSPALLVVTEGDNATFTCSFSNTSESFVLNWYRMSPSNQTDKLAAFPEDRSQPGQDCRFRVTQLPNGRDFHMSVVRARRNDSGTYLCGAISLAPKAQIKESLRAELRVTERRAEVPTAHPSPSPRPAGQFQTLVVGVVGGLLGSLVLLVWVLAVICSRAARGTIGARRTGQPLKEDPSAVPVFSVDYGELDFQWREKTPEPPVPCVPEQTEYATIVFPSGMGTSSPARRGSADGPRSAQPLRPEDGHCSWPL
Sequence of Programmed cell death protein 1/Programmed cell death 1 ligand 1 (Q9NZQ7 whole entry): as the sequence (Q9NZQ7 whole entry) above

The IC50 is the concentration that gives 50% inhibition. As a reminder, the inhibition is the relative decrease from the control value, in per cent. Regarding `Cc1cc(OCc2cccc(-c3ccccc3)c2C)cc(C)c1CNCCO`, in data set [1], the half-inhibitory concentration (IC50) was determined as 4.1 µM. The inhibition in data set [2] was 62.8%.
Usually logD stands for lipophilicity at a set pH, counting ionised and neutral species. High values mean higher lipophilicity, low ones lower lipophilicity. In turn, `CC(C)(C)NCC(O)COc1cccc2c1CC(O)C(O)C2` (stereo not drawn) [NADOLOL] came in with a logD in [3] (octanol/water, pH 7.4, 1 h) of -1.2.
As to `COc1nc(OCc2cccc(-c3ccccc3)c2C)ccc1CNCCO[C@H]1O[C@H](CO)[C@@H](O)[C@H](O)[C@@H]1O`, in data set [4], the result was Active. The inhibition entry in data set [5] is “Active”. In data set [6], the Activity entry is recorded as “Non-Toxic”.
As to `CN(C)CCC=C1c2ccccc2CCc2ccccc21` [AMITRIPTYLINE], the logD at 1 h in data set [3] was 3.
For the molecule `Cc1c(COc2ccc(CNCCO)cc2F)cccc1-c1ccccc1`, in data set [1], the IC50 was 5.4 µM. This molecule showed an inhibition in [2] of 57.1%.
Turning to `Cc1c(COc2cc(CNCCO)ccc2Cl)cccc1-c1ccccc1`, in data set [1], the IC50 came out at 7.8 µM. Further, the inhibition in [2] was determined as 51.4%.
For `COc1nc(OCc2cccc(-c3ccccc3)c2C)ccc1CNCCO`, in data set [1], the IC50 was found to be 2.8 µM. For the same molecule, the log distribution coefficient (logD) at 1 h in data set [3] worked out at 3.23. Moreover, the viability at 48 h, 10 µM in data set [7] stood at 0%. In data set [2], this molecule displayed an inhibition of 94.5%.
Molecule `CN(C)CCCN1c2ccccc2Sc2ccc(Cl)cc21` [CHLORPROMAZINE] displayed a logD at 1 h in data set [3] of 3.18.
On to `COc1cc(OCc2cccc(-c3ccccc3)c2C)cc(OC)c1CNCCO`, for which the concentration for half-maximal inhibition (IC50) in data set [1] was 5.7 µM. In addition, in data set [3], the logD at 1 h was 2.85. In data set [7], the viability at 48 h, 10 µM came to 0%.
Take `COc1cc(OCc2cccc(-c3ccccc3)c2C)cc(OC)c1CNCCO[C@@H]1O[C@H](CO)[C@@H](O)[C@H](O)[C@H]1O`: the result in [8] was inactive.
In the case of `COc1ccc(CNCCO)cc1OCc1cccc(-c2ccccc2)c1C`, the IC50 in data set [1] stood at 17.9 µM. The inhibition in [2] was 26.9%.
As to `COc1nc(OCc2cccc(-c3ccccc3)c2C)ccc1CNCc1cn([C@@H]2O[C@H](CO)[C@H](O)[C@H](O)[C@H]2O)nn1`, the IC50 in data set [1] was above 100 µM; in data set [9] it was 0.174 µM.
The matching figures for `COc1cc(OCc2cccc(-c3ccccc3)c2C)cc(OC)c1CNCc1cn([C@@H]2O[C@@H]3CO[C@@H](c4ccccc4)O[C@H]3[C@H](O)[C@H]2O)nn1`: 4.5 µM and 1.09 µM.
Taken in the same sequence, the figures for `COc1cc(OCc2cccc(-c3ccccc3)c2C)cc(OC)c1CNCc1cn([C@@H]2OC[C@H](O)[C@@H](O)[C@H]2O)nn1` were 19.8 µM and 0.321 µM.
As for `COc1ccc(CNCc2cn([C@@H]3O[C@H](CO)[C@H](O)[C@H](O)[C@H]3O)nn2)cc1OCc1cccc(-c2ccccc2)c1C`, the results for the half-maximal inhibitory concentration (IC50) in data set [1] and in [9] were above 100 µM and 0.612 µM, respectively.
In the case of `COc1nc(OCc2cccc(-c3ccccc3)c2C)ccc1CNCc1cn([C@H]2O[C@@H](C)[C@@H](O)[C@@H](O)[C@@H]2O)nn1`, the concentration for half-maximal inhibition (IC50) in [1] was determined as 24.5 µM; in data set [9] it was 0.178 µM.
For `COc1cc(OCc2cccc(-c3ccccc3)c2C)cc(OC)c1CN[C@H](C)CO`, the IC50 in data set [1] was 2.8 µM. Besides, in [3], the logD at 1 h turned out to be 3.25. Further, the Activity result in [10] and in data set [11] was “Toxic” each time.
`COc1ccc(CNCc2cn([C@@H]3O[C@H](CO)[C@@H](O)[C@H](O)[C@H]3O)nn2)cc1OCc1cccc(-c2ccccc2)c1C`: the IC50 in data set [1] was above 100 µM; in [9], 1.76 µM.
Taken in the same sequence, the figures for `COc1ccc(CNCc2cn([C@@H]3OC[C@H](O)[C@@H](O)[C@H]3O)nn2)cc1OCc1cccc(-c2ccccc2)c1C` were 53.9 µM and 1.48 µM.
`COc1cc(OCc2cccc(-c3ccccc3)c2C)cc(OC)c1CNCc1cn([C@@H]2OC[C@H](O)[C@H](O)[C@H]2O)nn1`: the concentration for half-maximal inhibition (IC50) in data set [1] is 43.4 µM; in [9], 0.507 µM.
Taken in the same sequence, the figures for `COc1ccc(CNCc2cn([C@@H]3O[C@@H]4CO[C@@H](c5ccccc5)O[C@H]4[C@H](O)[C@H]3O)nn2)cc1OCc1cccc(-c2ccccc2)c1C` were 6.2 µM and 2.96 µM.
Taken in the same sequence, the figures for `COc1cc(OCc2cccc(-c3ccccc3)c2C)cc(OC)c1CNCc1cn([C@@H]2OC[C@@H](O)[C@H](O)[C@H]2O)nn1` were 27.6 µM and 0.353 µM.
In the case of `COc1ccc(CNCc2cn([C@@H]3O[C@H](CO)[C@@H](O)[C@H](O)[C@H]3NC(C)=O)nn2)cc1OCc1cccc(-c2ccccc2)c1C`, the half-inhibitory concentration (IC50) was above 100 µM in data set [1] and 1.09 µM in data set [9].
Taken in the same sequence, the figures for `COc1ccc(CNCc2cn([C@@H]3OC[C@@H](O)[C@@H](O)[C@H]3O)nn2)cc1OCc1cccc(-c2ccccc2)c1C` were 31.3 µM and 2.26 µM.
`COc1cc(OCc2cccc(-c3ccccc3)c2C)cc(OC)c1CNCc1cn([C@@H]2O[C@H](CO)[C@H](O)[C@H](O)[C@H]2O)nn1`: the results for the IC50 in data set [1] and in [9] were 27.3 µM and 0.454 µM, respectively.
For the molecule `COc1nc(OCc2cccc(-c3ccccc3)c2C)ccc1CNCCNC(C)=O`, the IC50 in [1] was 2.6 µM. For the same molecule, the pH-dependent lipophilicity (logD) at 1 h in data set [3] was 3.33. Further, the Activity entry in data set [10], in data set [12] and in data set [11] was “Toxic” in each case.
On to `COc1ccc(CNCc2cn([C@H]3O[C@H](CO)[C@@H](O)[C@H](O)[C@@H]3O)nn2)cc1OCc1cccc(-c2ccccc2)c1C`, for which the IC50 worked out at 73.9 µM in data set [1] and 1.15 µM in [9].
The matching figures for `COc1nc(OCc2cccc(-c3ccccc3)c2C)ccc1CNCc1cn([C@@H]2OC[C@@H](O)[C@@H](O)[C@H]2O)nn1`: 16.9 µM and 0.0989 µM.
In the case of `Cc1c(COc2ccc(Cl)c(CNCCO)c2)cccc1-c1ccccc1`, in data set [1], the half-maximal inhibitory concentration (IC50) is 12.4 µM. In [2], this molecule registered an inhibition of 36.7%.
